Measurements from patent US5760036A, “Aminediol protease inhibitors” (E. R. Squibb & Sons, Inc., priority 1995, dated 1998).
Like-named read-outs stand apart in the source and are kept apart here.

Columns and labels:
HIV protease = target: T1, HIV protease (Human immunodeficiency virus type 1 group M subtype B, UniProt P04585); assay: HIV Protease Assay; type: biochemical
T1 construct: and purified protease
Procedure, shortened: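 At a single final concentration of 10 μM (4% DMSO), inhibitors were added to a 30-minute, 37° C reaction of purified enzyme with 450 μM H2N-Val-Ser-Gln-Asn-(β-naphthyl-alanine)-Pro-Val-Ile-OH at pH 5.5 (sodium acetate, BSA). Hydrolysis was quantified by reverse-phase HPLC with 220 nm detection after acid quench.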

[1] = test system: RF strain of HIV (CEM-SS cells); assay: Cell Culture Anti-HIV Activity (cell viability, formazan); type: cell-based; conditions: Human immunodeficiency virus 1, CEM-SS, 144 h, CEM-SS cells, RF strain of HIV, multiplicity of infection 0.04, 6 days at 37° C., 450 nm; read-out: HIV (CEM Cells) IC50
Procedure, shortened: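 Half-log compound dilutions added to CEM-SS cells (5000/well) carrying HIV RF (MOI 0.04), 6 days, 37° C. Cell protection measured as formazan from tetrazolium, A450. IC50: drug level restoring infected-cell formazan to 50% of the uninfected untreated control.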

[2] = pH 5.5, 10 μM inhibitor, 4% DMSO, 450 μM substrate, pH 5.5, 30 minutes at 37° C., RP-HPLC, read-out: HIV Protease % Inhibition at 10 μM

inhibition at 10 µM (HIV protease; [2]) [%]	inhibition at 10 µM (HIV protease; pH 5.5, read-out: HIV Protease % Inhibition at 10 μM) [%]	HIV Protease % Inhibition at 10 μM (HIV protease; 10 μM inhibitor, 4% DMSO, 450 μM substrate, pH 5.5, 30 minutes at 37° C., RP-HPLC) [%]	Compound	IC50 [1] [nM]
97	–	–	CC(C)(C)OC(=O)N[C@@H](Cc1ccccc1)[C@H](O)CNC[C@@H](O)[C@H](Cc1ccccc1)NC(=O)O[C@H]1COC[C@@H]1O [Compound 316, [1S-(1R*,2S*), (3S-trans)]-[Iminobis[2-hydroxy-1-(phenylmethyl)-3,1-propanediyl]]bis[carbamic acid], 4-hydroxy-3-tetrahydrofuranyl 1,1-dimethylethyl ester]	620
100	–	–	CC(C)(C)OC(=O)N[C@@H](Cc1ccccc1)[C@H](O)CNC[C@@H](O)[C@H](Cc1ccccc1)NC(=O)[C@@H](NC=O)C(C)(C)C [Compound 234, [1S-[1R*,2S*(2S*,3R*),(R*)]]-[3-[[3-[[3,3-Dimethyl-2-(formylamino)-1-oxobutyl]amino]-2-hydroxy-4-phenylbutyl]amino]-2-hydroxy-1-(phenylmethyl)propyl]carbamic acid, 1,1-dimethylethyl ester]	80
98	–	–	CC(C)(C)OC(=O)N[C@@H](Cc1ccccc1)[C@H](O)CNC[C@@H](O)[C@H](Cc1ccccc1)NC(=O)OC(C)(C)[C@H](O)CO [Compound 228, [1S-(1R*,2S*),(S*)]-[Iminobis[2-hydroxy-1-(phenylmethyl)-3,1-propanediyl]]biscarbamic acid, 2,3-dihydroxy-1,1-dimethylpropyl 1,1-dimethylethyl ester]	700
99	–	–	CC(C)(C)OC(=O)N[C@@H](Cc1ccccc1)[C@H](O)CNC[C@@H](O)[C@H](Cc1ccccc1)NC(=O)C(C)(O)C(F)(F)F (single isomer, unassigned; isomer a) [Compound 293, [1S-[1R*,2S*(2S*,3R*)]]-[2-Hydroxy-3-[2-hydroxy-1-oxo-2-(trifluoromethyl)-propyl]amino]-4-phenylbutyl]amino]-1-(phenylmethyl)propyl]carbamic acid, 1,1-dimethylethylester (isomer A)]	30
–	100	–	CC(C)(C)OC(=O)N[C@@H](Cc1ccccc1)[C@H](O)CNC[C@@H](O)[C@H](Cc1cccc(O)c1)NC(=O)OC(C)(C)C [Compound 29, [1S-[1R*,2S*(2S*,3R*)]]-[3-[[3-[[(1,1-Dimethylethoxy)-carbonyl]amino]-2-hydroxy-4-(3-hydroxyphenyl)butyl]-amino]-2-hydroxy-1-(phenylmethyl)propyl]carbamic acid, 1,1-dimethylethyl ester]	100
100	–	–	CC(C)(C)OC(=O)N[C@@H](Cc1ccccc1)[C@H](O)CNC[C@@H](O)[C@H](Cc1ccccc1)NC(=O)[C@@H](NC(=O)[C@H](Cc1ccccc1)NC=O)C(C)(C)C (relative stereo) [Compound 285, [1R*,2S*(2S*,3R*)]-N-[3-[[(1,1-Dimethylethoxy)carbonyl]amino]-2-hydroxy-4-phenylbutyl]amino]-2-hydroxy-1-(phenylmethyl)propyl]-N^2-(N-formyl-L-phenylalanyl)-3-methyl-L-valinamide]	650
–	–	88	CC(C)(C)OC(=O)N[C@@H](Cc1ccccc1)[C@H](O)CNC[C@@H](O)[C@H](Cc1ccccc1)NC(=O)OC1c2ccccc2CC1O (stereo partly drawn) [Compound 148, [1S-(1R*, 2S*)]-[Iminobis[2-hydroxy-1-(phenylmethyl)-3,1-propanediyl)]biscarbamic acid, 1,1-dimethylethyl 2,3-dihydro-2-hydroxy-1H-inden-1-yl ester]	2000
98	–	–	COc1ccccc1C[C@H](NC(=O)OC(C)(C)C)[C@H](O)CNC[C@@H](O)[C@H](Cc1ccccc1)NC(=O)OC(C)(C)C [Compound 349, [1S-[1R*,2S*(2S*,3R*)]]-[3-[[3-1,1-Dimethylethoxy)-carbonyl]amino]-2-hydroxy-4-(2-methoxyphenyl)butyl]-amino]-2-hydroxy-1-(phenylmethyl)propyl]carbamic acid, 1,1-dimethylethyl ester]	370
99	–	–	COC(=O)N[C@H](C(=O)N[C@@H](Cc1ccc(OCC(=O)N2CCOCC2)cc1)[C@H](O)CNC[C@@H](O)[C@H](Cc1ccccc1)NC(=O)OC(C)(C)C)C(C)(C)C (relative stereo) [Compound 341, [1R*,2S*(2S*,3R*)]-N-[3-[[3-[[(1,1-Dimethylethoxy)carbonyl]amino]-2-hydroxy-4-phenylbutyl]amino]-2-hydroxy-1-[[4-[2-(4-morpholinyl)-2-oxoethoxy]phenyl]methyl]propyl]-N^2-(2-methoxycarbonyl)-3-methyl-L-valinamide]	2100
89	–	–	CC(C)(C)OC(=O)N[C@@H](Cc1ccccc1)[C@H](O)CNC[C@@H](O)[C@H](Cc1ccccc1)NC(=O)OC1(C)CCOCC1 [Compound 166, [1S-(1R*,2S*)]-[Iminobis[2-hydroxy-1-(phenylmethyl)-3,1-propanediyl]]bis[carbamic acid], 1,1-dimethylethyl-4-methyltetrahydropyran-4-yl-ester]	1700
100	–	–	COC(=O)N(C)[C@H](C(=O)N[C@@H](Cc1ccccc1)[C@H](O)CNC[C@@H](O)[C@H](Cc1ccccc1)NC(=O)OC(C)(C)C)C(C)(C)C [Compound 320, [1S-[1R*,2S*,(2S*,3R*)]-[2,2-Dimethyl-1-[[[3-[[3-(1,1-dimethylethoxy)-carbonyl]amino]-2-hydroxy-4-phenylbutyl]amino]-2-hydroxy-1-(phenylmethyl)propyl]amino]-carbonyl]propyl]methylcarbamic acid, methyl ester]	220
100	–	–	CC(C)[C@H](NC(=O)N(C)Cc1nc2ccccc2[nH]1)C(=O)N[C@@H](Cc1ccccc1)[C@H](O)CNC[C@@H](O)[C@H](Cc1ccccc1)NC(=O)OC(C)(C)C (relative stereo) [Compound 245, [1R*,2S*(2S*,3R*)]-N-[3-[[3-[[(1,1-Dimethylethoxy)carbonyl]amino]-2-hydroxy-4-phenylbutyl]amino]-2-hydroxy-1-(phenylmethyl)propyl]-N^2-[[(1H-benzimidazol-2-yl-methyl)methylamino]carbonyl]-L-valinamide]	1800
98	–	–	CCC(C)(C)OC(=O)N[C@@H](Cc1ccccc1)[C@H](O)CNC[C@@H](O)[C@H](Cc1ccccc1)NC(=O)OC(C)(C)CC [Compound 138, [R-(R*,S*)]-[Iminobis[2-hydroxy-1-(phenylmethyl)-3,1-propandiyl]]biscarbamic acid, bis(1,1-dimethylpropyl)ester]	> 800
90	–	–	COC(C(=O)N[C@@H](Cc1ccccc1)[C@H](O)CNC[C@@H](O)[C@H](Cc1ccccc1)NC(=O)OC(C)(C)C)C(C)(C)C (stereo partly drawn) [Compound 325, [1S-[1R*,2S*(2S*,3R*)]]-[2-Hydroxy-3-[[2-hydroxy-3-[(2-methoxy-3,3-dimethyl-1-oxobutyl)amino]-4-phenylbutyl]amino]-1-(phenylmethyl)-propyl]carbamic acid, 1,1-dimethylethyl ester]	1540
100	–	–	CC(O)COc1ccc(C[C@H](NC(=O)OC(C)(C)C)[C@H](O)CNC[C@@H](O)[C@H](Cc2ccccc2)NC(=O)OC(C)(C)C)cc1 (stereo partly drawn) [Compound 306, [1S-[1R*, 2S* (2S*, 3R*)]-[3-[[(1,1-Dimethylethoxy)carbonyl]amino]-2-hydroxy-4-[4-(2-hydroxypropoxy)phenyl]butyl]amino]-2-hydroxy-1-(phenylmethyl)propyl]carbamic acid, 1.1-dimethylethyl ester]	60
